The subject of data set [1] is Botryotinia fuckeliana (Botrytis cinerea). In words: Botryotinia fuckeliana (Botrytis cinerea) / liquid culture (Gray mould). It is filed as cell-based. The settings on record: growth inhibition photometrically 3-4 days after application, vs untreated control.
Data set [2] relates to Glomerella lagenarium (Colletotrichum lagenarium). In words: Glomerella lagenarium (Colletotrichum lagenarium) / liquid culture (Anthracnose). It is filed as cell-based. The settings on record: Colletotrichum orbiculare, growth inhibition photometrically 3-4 days after application, vs untreated control.
The subject of data set [3] is Fusarium culmorum. In words: microbe, parasite or virus in culture. It is filed as cell-based. The settings on record: read-out: control of Fusarium culmorum.
In data set [4] the test system is Magnaporthe grisea (Pyricularia oryzae). As to the kind of experiment: microbe, parasite or virus in culture. The settings on record: read-out: control of Magnaporthe grisea. It is filed as cell-based.
Data set [5] has as its system Monographella nivalis (Microdochium nivale). In words: Monographella nivalis (Microdochium nivale) / liquid culture (foot rot cereals). It is filed as cell-based. The settings on record: growth inhibition photometrically 4-5 days after application, vs untreated control.
For data set [6], the system named is Fusarium culmorum. In words: whole plant or invertebrate. Particulars: in Triticum aestivum, 144 h, read-out: control of Fusarium culmorum. The data set is classed as in vivo.

Some results are limits rather than exact numbers.

As for `CC(C)C[C@](C)(CN1CCCC(F)(F)C1)NC(=O)c1cnc2c(F)cccc2c1` (single isomer, unassigned) [F1], the inhibition of growth at 20 ppm (in data set [1]; in data set [2]; in the data set on Fusarium culmorum [3]; in data set [4]) was at least 80% throughout.

On to `Cc1cnc(CC(C)(CC(C)(C)C)NC(=O)c2cnc3c(F)cccc3c2)o1` (centres unmarked) [E1], for which the inhibition of growth at 20 ppm (in data set [1]; in data set [2]; in the data set with Fusarium culmorum [3]; in data set [5]) was at least 80% in each case.

For `Cc1noc(CC(C)(CC(C)(C)C)NC(=O)c2cnc3c(F)cccc3c2)n1` (centres unmarked) [E2], the inhibition of growth at 20 ppm (in data set [1]; in data set [2]; with Fusarium culmorum [3]; in data set [4]) was at least 80% in each case.

On to `CC(C)CC(C)(CN1CCCC(F)(F)C1)NC(=O)c1cnc2c(F)cccc2c1` (centres unmarked) [E3], for which the inhibition of growth at 20 ppm (in data set [1]; in data set [2]; with Fusarium culmorum [3]; in data set [4]) was at least 80% in each case. Besides, in the data set on Fusarium culmorum [6], the pest or weed control at 200 ppm is at least 80%.

For the compound `CC(C)CC(C)(CN1CCC(=C(F)F)CC1)NC(=O)c1cnc2c(F)cccc2c1` (centres unmarked) [E4], the inhibition of growth at 20 ppm (in data set [1]; in data set [2]; in the data set on Fusarium culmorum [3]; in data set [4]) was at least 80% each time.

Consider `CC(C)CC(C)(CN1CCC(F)(F)CC1)NC(=O)c1cnc2c(F)cccc2c1` (centres unmarked) [E5], for which the inhibition of growth at 20 ppm (in data set [1]; in data set [2]; in the data set on Fusarium culmorum [3]; in data set [4]) was at least 80% in each case.

Regarding `CC(C)CC(C)(CN1CCSCC1)NC(=O)c1cnc2c(F)cccc2c1` (centres unmarked) [E7], the inhibition of growth at 20 ppm (in data set [1]; in the data set with Fusarium culmorum [3]; in data set [4]) was at least 80% in each case.

On to `Cc1ncc(CC(C)(CC(C)C)NC(=O)c2cnc3c(F)cccc3c2)s1` (centres unmarked) [E8], for which the melting point was in the range of 146 to 150 °C. This compound also had an inhibition of growth at 20 ppm in data set [1] of at least 80%. Moreover, the inhibition of growth at 20 ppm in data set [2] was at least 80%. In the data set on Fusarium culmorum [3], the inhibition of growth at 20 ppm is at least 80%. For the same compound, in data set [4], the inhibition of growth at 20 ppm is at least 80%.

Regarding `CC(C)CC(C)(Cc1cnc(Cl)s1)NC(=O)c1cnc2c(F)cccc2c1` (centres unmarked) [E9], the melting point fell in the range of 171 to 173 °C. Further, the inhibition of growth at 20 ppm in data set [1] was at least 80%. In the data set on Fusarium culmorum [3], the inhibition of growth at 20 ppm is at least 80%. Also, the pest or weed control at 200 ppm with Fusarium culmorum [6] is at least 80%. For the same compound, the inhibition of growth at 20 ppm in data set [4] is at least 80%.

For the compound `CC(C)(C)CC(C)(Cc1ncco1)NC(=O)c1cnc2c(F)cccc2c1` (centres unmarked) [E11], the inhibition of growth at 20 ppm (in data set [1]; in data set [2]; in the data set with Fusarium culmorum [3]) was at least 80% each time.

For `CC(C)CC(C)(Cc1cccs1)NC(=O)c1cnc2c(F)cccc2c1` (centres unmarked) [E12], the inhibition of growth at 20 ppm (in data set [1]; in data set [2]; in the data set on Fusarium culmorum [3]; in data set [4]) was at least 80% in each case. For the same compound, the pest or weed control at 200 ppm in the data set with Fusarium culmorum [6] is at least 80%.

With `Cc1ccc(CC(C)(CC(C)C)NC(=O)c2cnc3c(F)cccc3c2)s1` (centres unmarked) [E13], the inhibition of growth at 20 ppm (in data set [1]; in data set [2]; in the data set with Fusarium culmorum [3]; in data set [4]) was at least 80% in each case.

For `Cc1cc(C(F)(F)F)n(CC(C)(CC(C)C)NC(=O)c2cnc3c(F)cccc3c2)n1` (centres unmarked) [E15], the inhibition of growth at 20 ppm (in data set [2]; in the data set on Fusarium culmorum [3]; in data set [4]) was at least 80% in each case. In the data set with Fusarium culmorum [6], the pest or weed control at 200 ppm is at least 80%.

`Cc1cc(C(F)(F)F)nn1CC(C)(CC(C)C)NC(=O)c1cnc2c(F)cccc2c1` (centres unmarked) [E16]: the melting point fell in the range of 140 to 144 °C. Besides, the inhibition of growth at 20 ppm in data set [4] was at least 80%.

Consider `Cc1c2ccccc2nn1CC(C)(CC(C)C)NC(=O)c1cnc2c(F)cccc2c1` (centres unmarked) [E17], for which the inhibition of growth at 20 ppm (in data set [1]; in the data set with Fusarium culmorum [3]; in data set [5]) was at least 80% each time.

Consider `Cc1nn(CC(C)(CC(C)C)NC(=O)c2cnc3c(F)cccc3c2)c2ccccc12` (centres unmarked) [E18], for which the inhibition of growth at 20 ppm (in data set [1]; in data set [2]; with Fusarium culmorum [3]) was at least 80% in each case.

As to `Cc1nn(CC(C)(CC(C)C)NC(=O)c2cnc3c(F)cccc3c2)c(C)c1Cl` (centres unmarked) [E19], the melting point was 134 to 138 °C. Further, in data set [1], the inhibition of growth at 20 ppm is at least 80%. Further, in data set [2], the inhibition of growth at 20 ppm is at least 80%. The inhibition of growth at 20 ppm in the data set on Fusarium culmorum [3] was at least 80%. In data set [5], the inhibition of growth at 20 ppm was at least 80%.

As to `Cc1nn(CC(C)(CC(C)C)NC(=O)c2cnc3c(F)cccc3c2)c(C)c1C` (centres unmarked) [E20], the melting point was 140 to 144 °C. The compound further returned an inhibition of growth at 20 ppm in data set [1] of at least 80%. In data set [2], this compound came in with an inhibition of growth at 20 ppm of at least 80%. Further, in the data set on Fusarium culmorum [3], the inhibition of growth at 20 ppm was at least 80%. In data set [5], this compound had an inhibition of growth at 20 ppm of at least 80%.

In the case of `Cc1cc(C)n(CC(C)(CC(C)C)NC(=O)c2cnc3c(F)cccc3c2)n1` (centres unmarked) [E21], the inhibition of growth at 20 ppm (in data set [1]; in data set [2]; in the data set on Fusarium culmorum [3]; in data set [5]; in data set [4]) was at least 80% throughout.

For the compound `CC1=NN(CC(C)(CC(C)C)NC(=O)c2cnc3c(F)cccc3c2)CCC1` (centres unmarked) [E23], the inhibition of growth at 20 ppm (in data set [1]; in data set [2]; in the data set with Fusarium culmorum [3]; in data set [5]) was at least 80% throughout.

For `CC(CC1CCOCC1)(CC(F)(F)F)NC(=O)c1cnc2c(F)cccc2c1` (centres unmarked) [E25], the melting point was 150 to 151 °C. Further, in data set [1], the inhibition of growth at 20 ppm was at least 80%. This compound gave an inhibition of growth at 20 ppm in data set [2] of at least 80%. Further, the inhibition of growth at 20 ppm in the data set on Fusarium culmorum [3] was at least 80%.

As for `CON1CCC(CC(C)(CC(F)(F)F)NC(=O)c2cnc3ccccc3c2)CC1` (centres unmarked) [E26], the inhibition of growth at 20 ppm (in data set [1]; in data set [2]; in the data set with Fusarium culmorum [3]; in data set [4]) was at least 80% in each case. Further, the pest or weed control at 200 ppm with Fusarium culmorum [6] is at least 80%.

On to `CON1CCC(CC(C)(CC(F)(F)F)NC(=O)c2cnc3c(C)cccc3c2)CC1` (centres unmarked) [E27], for which the inhibition of growth at 20 ppm (in data set [1]; in data set [2]; with Fusarium culmorum [3]; in data set [4]) was at least 80% throughout.

`CON1CCC(CC(C)(CC(F)(F)F)NC(=O)c2cnc3c(F)cccc3c2)CC1` (centres unmarked) [E28]: the melting point lay within 76 to 86 °C. The compound further had an inhibition of growth at 20 ppm in data set [1] of at least 80%. The compound further came in with an inhibition of growth at 20 ppm in data set [2] of at least 80%. For the same compound, the inhibition of growth at 20 ppm in the data set with Fusarium culmorum [3] is at least 80%.

`CC(Cc1ccc(F)nc1)(CC(F)(F)F)NC(=O)c1cnc2c(F)cccc2c1` (centres unmarked) [E29] had a melting point of 70 to 74 °C. This compound also displayed an inhibition of growth at 20 ppm in data set [1] of at least 80%. This compound also showed an inhibition of growth at 20 ppm in data set [2] of at least 80%. For the same compound, in the data set on Fusarium culmorum [3], the inhibition of growth at 20 ppm is at least 80%.

Consider `CC(Cc1ccnc(F)c1)(CC(F)(F)F)NC(=O)c1cnc2c(F)cccc2c1` (centres unmarked) [E30], for which the melting point lay within 136 to 142 °C. Besides, the inhibition of growth at 20 ppm in data set [1] is at least 80%. Besides, the inhibition of growth at 20 ppm in the data set with Fusarium culmorum [3] was at least 80%. In addition, the pest or weed control at 200 ppm in the data set with Fusarium culmorum [6] was at least 80%. The inhibition of growth at 20 ppm in data set [4] is at least 80%.

As for `CC(CC1CCOCC1)(CC(F)(F)F)NC(=O)c1cnc2ccccc2c1` (centres unmarked) [E31], in data set [1], the inhibition of growth at 20 ppm is at least 80%.

On to `Cc1cccc2cc(C(=O)NC(C)(CC3CCOCC3)CC(F)(F)F)cnc12` (centres unmarked) [E32], for which the inhibition of growth at 20 ppm (in data set [1]; in data set [2]; with Fusarium culmorum [3]; in data set [4]) was at least 80% in each case.

As for `CC(Cc1cccc(F)n1)(CC(F)(F)F)NC(=O)c1cnc2c(F)cccc2c1` (centres unmarked) [E34], the inhibition of growth at 20 ppm (in data set [1]; in data set [2]; in the data set with Fusarium culmorum [3]; in data set [4]) was at least 80% in each case. Further, the pest or weed control at 200 ppm in the data set with Fusarium culmorum [6] was at least 80%.

Consider `CC(Cc1cccc(F)n1)(CC(F)(F)F)NC(=O)c1cnc2ccccc2c1` (centres unmarked) [E35], for which the melting point was in the range of 109 to 111 °C. In addition, the inhibition of growth at 20 ppm in data set [1] was at least 80%. This compound gave an inhibition of growth at 20 ppm in data set [2] of at least 80%. Besides, in the data set on Fusarium culmorum [3], the inhibition of growth at 20 ppm is at least 80%. Further, the pest or weed control at 200 ppm with Fusarium culmorum [6] is at least 80%.

On to `CC(CC1CCCOC1)(CC(F)(F)F)NC(=O)c1cnc2ccccc2c1` (centres unmarked) [E36], for which the melting point is 81 to 84 °C. This compound also yielded an inhibition of growth at 20 ppm in data set [1] of at least 80%. Besides, the inhibition of growth at 20 ppm in data set [2] was at least 80%. Further, the inhibition of growth at 20 ppm in the data set with Fusarium culmorum [3] is at least 80%.

Turning to `Cc1cccc2cc(C(=O)NC(C)(CC3CCCOC3)CC(F)(F)F)cnc12` (centres unmarked) [E37], the inhibition of growth at 20 ppm (in data set [1]; in data set [2]; with Fusarium culmorum [3]; in data set [5]; in data set [4]) was at least 80% throughout.

As to `CC(CC1CCCOC1)(CC(F)(F)F)NC(=O)c1cnc2c(F)cccc2c1` (centres unmarked) [E38], the melting point lay in the range of 85 to 88 °C. The compound further showed an inhibition of growth at 20 ppm in data set [1] of at least 80%. In addition, in data set [2], the inhibition of growth at 20 ppm is at least 80%. In addition, the inhibition of growth at 20 ppm in the data set with Fusarium culmorum [3] was at least 80%. In data set [5], this compound had an inhibition of growth at 20 ppm of at least 80%. In addition, in data set [4], the inhibition of growth at 20 ppm is at least 80%.

As usually defined, the melting point is the temperature, or range, at which the solid turns liquid.

For the origin of these results see patent US11266146B2, “Microbiocidal quinoline (thio)carboxamide derivatives” (SYNGENTA PARTICIPATIONS AG, priority 2017, dated 2022).
